Experimental data taken from patent US20070060544A1, “4-Nitro-2-[(4'-methoxy)-phenoxy]-methanesulfonanilide derivatives and their pharmaceutical use” (priority 2002, published 2007).

Legend:
[1] = tested on: acetate-induced body twisting; test: acetate-induced body twisting in mice (analgesic effect); details: for analgesic effects compared with nimesulide (in words): oral
[2] = tested on: carrageenin-induced paw inflammation; test: paw inflammation induced by carrageenin in mice; assay type: in vivo; details: for Paw Swelling mm (M ± SD) at 3 hours / Paw Swelling mm (M ± SD) at 6 hours / anti-inflammatory effects compared with nimesulide (in words): mice; for Paw Swelling mm (M ± SD) at 3 hours / Paw Swelling mm (M ± SD) at 6 hours: orally administered; for Paw Swelling mm (M ± SD) at 3 hours: 0.243 mM/Kg; for Paw Swelling mm (M ± SD) at 6 hours: 0.485 mM/Kg; for anti-inflammatory effects relative to nimesulide (times stronger): 0.243 mM/kg vs nimesulide 0.243 mM/kg; for Paw Swelling mm (M ± SD) at 3 hours / anti-inflammatory effects relative to nimesulide (times stronger): at 3 hours; for anti-inflammatory effects compared with nimesulide (in words): oral
[3] = acute oral toxicity in mice; details: orally administered
[4] = orally administered, 0.485 mM/Kg
[5] = orally administered, 0.97 mM/Kg

Compound | No. of body-twisting (M ± SD) at 3 hours [1, 4] | No. of body-twistings (M ± SD) at 1 hour [1, 5] | No. of body-twisting (M ± SD) at 6 hours ([1]; orally administered, 0.97 (head: mg/Kg), at 6 hours) | Paw Swelling mm (M ± SD) at 3 hours [2] [mm] | Paw Swelling mm (M ± SD) at 6 hours [2] [mm] | analgesic effects compared with nimesulide (in words) [1] | anti-inflammatory effects relative to nimesulide (times stronger) [2] | anti-inflammatory effects compared with nimesulide (in words) [2] | LD50 value (95% C.L.) [3] [mg/kg] | toxicity relative to nimesulide (times lower) [3] | No. of body-twistings (M ± SD) at 1 hour [1, 4]
CS(=O)(=O)Nc1ccc([N+](=O)[O-])cc1Oc1ccccc1 [Nimesulide, nimesulide, reference compound] | 11.1 ± 9.7 | 14.8 ± 11.7 | 21.00 ± 19.09 | 2.10 ± 1.39 | 2.58 ± 1.20 |  |  |  |  |  | 
COc1ccc(Oc2cc([N+](=O)[O-])ccc2NS(C)(=O)=O)cc1.C[C@H]1CC[C@H](N)CC1 [S9, 4-nitro-2-[(4′-methoxy)-phenoxy]-methanesulfonyl aniline, trans-4-methyl-cyclohexylamine salt] | 6.7 ± 6.2 |  |  | 1.18 ± 0.65 |  | significantly stronger than nimesulide | 2 times | significantly stronger than that of nimesulide | 1223.3 | about 2 times | 
4-nitro-2-[(4′-methoxy)-phenoxy]-methanesulfonyl aniline [S6] |  | 10.8 ± 11.4 |  | 0.58 ± 0.67 | 1.91 ± 0.66 | significantly stronger than nimesulide | about 4 times | significantly stronger than that of nimesulide | 2355.5 | about 4 times | 11.4 ± 5.3
